Measured values as given in PubChem BioAssay AID330 (DTP/NCI, 2004).
Where “and” joins values, the source holds several entries; their conditions need not be identical. Identical values can stand only once. Toxic doses and inconclusive results are not listed.

Test system: P388 leukemia ip, CD2F1 mice, survival T/C
Assay: NCI In Vivo Anticancer Drug Screen. Data for tumor model P388 Leukemia (intraperitoneal) in CD2F1 (CDF1) mice
Details: endpoint: median survival time, higher = longer survival
In short: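 Mice carrying the transplanted tumor received test compound or vehicle. Survival was recorded in each group, and the value is the treated-group measurement divided by that of the vehicle-treated control group.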

[1] = dose: 60.0 mg/kg/injection, schedule: Q01DX005 (ip), vehicle: saline with Tween-80
[2] = dose: 120.0 mg/kg/injection, schedule: Q01DX005 (ip), vehicle: saline with Tween-80
[3] = dose: 240.0 mg/kg/injection, schedule: Q01DX005 (ip), vehicle: saline with Tween-80
[4] = dose: 50.0 mg/kg/injection, schedule: Q01DX009 (ip), vehicle: saline with Tween-80
[5] = dose: 100.0 mg/kg/injection, schedule: Q01DX009 (ip), vehicle: saline with Tween-80
[6] = dose: 50.0 mg/kg/injection, schedule: Q01DX009 (ip), vehicle: Klucel (hydroxypropylcellulose) (HPC)
[7] = dose: 100.0 mg/kg/injection, schedule: Q01DX009 (ip), vehicle: Klucel (hydroxypropylcellulose) (HPC)
[8] = dose: 200.0 mg/kg/injection, schedule: Q01DX009 (ip), vehicle: Klucel (hydroxypropylcellulose) (HPC)
[9] = dose: 400.0 mg/kg/injection, schedule: Q01DX009 (ip), vehicle: Klucel (hydroxypropylcellulose) (HPC)
[10] = dose: 50.0 mg/kg/injection, schedule: Q01DX009 (ip), vehicle: saline
[11] = dose: 100.0 mg/kg/injection, schedule: Q01DX009 (ip), vehicle: saline
[12] = dose: 200.0 mg/kg/injection, schedule: Q01DX009 (ip), vehicle: saline
[13] = dose: 12.5 mg/kg/injection, schedule: Q01DX009 (ip), vehicle: saline with Tween-80
[14] = dose: 25.0 mg/kg/injection, schedule: Q01DX009 (ip), vehicle: saline with Tween-80
[15] = dose: 50.0 mg/kg/injection, schedule: Q01DX005 (ip), vehicle: saline with Tween-80
[16] = dose: 100.0 mg/kg/injection, schedule: Q01DX005 (ip), vehicle: saline with Tween-80
[17] = dose: 200.0 mg/kg/injection, schedule: Q01DX005 (ip), vehicle: saline with Tween-80

SMILES: CC12C(=O)NC(c3ccncc3)(c3ccccc31)C1C(=O)N(c3ccccc3)C(=O)C12 (stereo not given)
- T/C [1]: 96 % of control
- T/C [2]: 94 % of control
- T/C [3]: 94 % of control

SMILES: COC(=O)[C@H]1O[C@H]1c1cccc[n+]1[O-]
- T/C (dose: 25.0 mg/kg/injection, schedule: Q01DX005 (ip), vehicle: water): 100 % of control
- T/C (dose: 50.0 mg/kg/injection, schedule: Q01DX005 (ip), vehicle: water): 97 % of control
- T/C (dose: 100.0 mg/kg/injection, schedule: Q01DX005 (ip), vehicle: water): 100 % of control
- T/C (dose: 200.0 mg/kg/injection, schedule: Q01DX005 (ip), vehicle: water): 102 % of control

SMILES: CCc1ccc(C(C)(C)C)cc1
- T/C (dose: 37.5 mg/kg/injection, schedule: Q01DX009 (ip), vehicle: saline with Tween-80): 110 % of control
- T/C [4]: 104 % of control
- T/C (dose: 75.0 mg/kg/injection, schedule: Q01DX009 (ip), vehicle: saline with Tween-80): 111 % of control
- T/C [5]: 109 % of control
- T/C (dose: 132.0 mg/kg/injection, schedule: Q01DX009 (ip), vehicle: saline with Tween-80): 113 % of control
- T/C (dose: 150.0 mg/kg/injection, schedule: Q01DX009 (ip), vehicle: saline with Tween-80): 102 % of control

SMILES: O=Cc1ccc(C(Cl)(Cl)Cl)cc1
- T/C [4]: 123 % of control
- T/C (dose: 264.0 mg/kg/injection, schedule: Q04DX003 (ip), vehicle: saline with Tween-80): 109 % of control
- T/C (dose: 400.0 mg/kg/injection, schedule: Q04DX003 (ip), vehicle: saline with Tween-80): 159 % of control

SMILES: O=C(O)CCN1c2ccccc2Sc2ccccc21
- T/C [6]: 89 % of control
- T/C [7]: 100 % of control
- T/C [8]: 99 % of control
- T/C [9]: 101 % of control

SMILES: COc1ccc2c(N)cccc2c1
- T/C [10]: 92 % of control
- T/C [11]: 88 % of control
- T/C [12]: 95 % of control

SMILES: CNC(=O)OCc1c(COC(=O)NC)c(-c2ccccc2)n(-c2ccc(Cl)c(Cl)c2)c1C
- T/C (dose: 12.5 mg/kg/injection, schedule: Q01DX009 (ip), vehicle: distilled water + Tween-80): 117 % of control
- T/C (dose: 25.0 mg/kg/injection, schedule: Q01DX009 (ip), vehicle: distilled water + Tween-80): 160 % of control
- T/C (dose: 100.0 mg/kg/injection, schedule: Q01DX009 (ip), vehicle: distilled water + Tween-80): 155 % of control and 165 % of control
- T/C (dose: 200.0 mg/kg/injection, schedule: Q01DX009 (ip), vehicle: distilled water + Tween-80): 155 % of control and 184 % of control
- T/C (dose: 400.0 mg/kg/injection, schedule: Q01DX009 (ip), vehicle: distilled water + Tween-80): 87 % of control

SMILES: CC(=O)CC1CC2(CCC1=O)OCCO2 (stereo not given)
- T/C (dose: 100.0 mg/kg/injection, schedule: Q01DX009 (ip), vehicle: saline sonified): 100 % of control
- T/C (dose: 200.0 mg/kg/injection, schedule: Q01DX009 (ip), vehicle: saline sonified): 100 % of control
- T/C (dose: 400.0 mg/kg/injection, schedule: Q01DX009 (ip), vehicle: saline sonified): 100 % of control

SMILES: BrCC1C[n+]2c(cc(-c3ccccc3)cc2-c2ccccc2)S1 (stereo not given)
- T/C (dose: 3.75 mg/kg/injection, schedule: Q01DX005 (ip), vehicle: Klucel (hydroxypropylcellulose) (HPC)): 100 % of control
- T/C (dose: 7.5 mg/kg/injection, schedule: Q01DX005 (ip), vehicle: Klucel (hydroxypropylcellulose) (HPC)): 99 % of control

SMILES: O=C(Nc1ccccc1F)OCCCl
- T/C [1]: 99 % of control
- T/C [2]: 101 % of control
- T/C [3]: 93 % of control

SMILES: CC(CC(N)C(=O)O)C(=O)O (stereo not given)
- T/C (dose: 50.0 mg/kg/injection, schedule: Q01DX005 (ip), vehicle: saline): 103 % of control
- T/C [6]: 103 % of control
- T/C (dose: 100.0 mg/kg/injection, schedule: Q01DX005 (ip), vehicle: saline): 98 % of control
- T/C [7]: 102 % of control
- T/C (dose: 200.0 mg/kg/injection, schedule: Q01DX005 (ip), vehicle: saline): 100 % of control
- T/C [8]: 103 % of control
- T/C [9]: 103 % of control

SMILES: CC1(C(=O)O)CCCC2(C)C3=CC(=O)OC3(OO)CCC12 (stereo not given)
- T/C (dose: 12.5 mg/kg/injection, schedule: Q01DX009 (ip), vehicle: saline): 104 % of control
- T/C (dose: 25.0 mg/kg/injection, schedule: Q01DX009 (ip), vehicle: saline): 101 % of control
- T/C [10]: 101 % of control

SMILES: CC(C)N(/C=C/C(=O)c1ccccc1)C(C)C
- T/C [13]: 99 % of control
- T/C [14]: 100 % of control
- T/C [4]: 94 % of control and 95 % of control

SMILES: CCCCOC(=O)CC(O)C(=O)OCCCC (stereo not given)
- T/C [4]: 109 % of control
- T/C [5]: 119 % of control
- T/C (dose: 200.0 mg/kg/injection, schedule: Q01DX009 (ip), vehicle: saline with Tween-80): 114 % of control

SMILES: C/C(=N\O)C(O)c1ccccc1 (stereo not given)
- T/C [11]: 88 % of control
- T/C [12]: 93 % of control
- T/C (dose: 400.0 mg/kg/injection, schedule: Q01DX009 (ip), vehicle: saline): 100 % of control

SMILES: CC(=O)NC(=O)CCCCCCC(=O)NC(C)=O
- T/C (dose: 50.0 mg/kg/injection, schedule: Q01DX005 (ip), vehicle: Klucel (hydroxypropylcellulose) (HPC)): 88 % of control

SMILES: O=C(C1CCCCC1)C1CCCCC1CC1CCCCC1 (stereo not given)
- T/C [15]: 102 % of control
- T/C [16]: 107 % of control
- T/C [17]: 107 % of control

SMILES: CC1(C)c2ccccc2N2C(c3ccccc3)=NN(c3ccccc3)C21C (stereo not given)
- T/C [1]: 100 % of control
- T/C [2]: 100 % of control

SMILES: NC(=O)c1cc(C(Cl)Cl)ccn1
- T/C (dose: 60.0 mg/kg/injection, schedule: Q01DX005 (ip), vehicle: Klucel (hydroxypropylcellulose) (HPC)): 100 % of control
- T/C (dose: 120.0 mg/kg/injection, schedule: Q01DX005 (ip), vehicle: Klucel (hydroxypropylcellulose) (HPC)): 99 % of control
- T/C (dose: 240.0 mg/kg/injection, schedule: Q01DX005 (ip), vehicle: Klucel (hydroxypropylcellulose) (HPC)): 93 % of control

SMILES: COc1ccc(C=NC#N)cc1
- T/C [6]: 101 % of control
- T/C [7]: 93 % of control
- T/C [8]: 88 % of control

SMILES: O=C(O)CCC(Nc1ncnc2nc[nH]c12)C(=O)O (stereo not given)
- T/C [15]: 92 % of control
- T/C [16]: 97 % of control
- T/C [17]: 89 % of control

SMILES: Cc1cc(N=Nc2cc(C)c(NC(=O)c3ccc(NC(=O)c4ccc(N)cc4)cc3)cc2C)ccc1N=Nc1ccc2cc(S(=O)(=O)O)cc(S(=O)(=O)O)c2c1
- T/C [15]: 110 % of control
- T/C [16]: 111 % of control
- T/C [17]: 110 % of control

SMILES: Clc1nc(Cl)nc(-c2cn(-c3ccccc3)c3ccccc23)n1
- T/C [13]: 100 % of control
- T/C [14]: 90 % of control
- T/C [4]: 100 % of control

SMILES: CCN(CC)CCCC(C)Nc1ncnc2cc(Cl)ccc12 (stereo not given)
- T/C [15]: 97 % of control
- T/C [16]: 94 % of control
- T/C [17]: 94 % of control

SMILES: CN(C)CCNc1ccc(NCCN(C)C)c2c1C(=O)c1ccccc1C2=O
- T/C (dose: 2.5 mg/kg/injection, schedule: Q01DX009 (ip), vehicle: distilled water + Tween-80): 117 % of control
- T/C (dose: 5.0 mg/kg/injection, schedule: Q01DX009 (ip), vehicle: distilled water + Tween-80): 124 % of control
- T/C (dose: 20.0 mg/kg/injection, schedule: Q01DX009 (ip), vehicle: acid diluted with saline): 163 % of control
- T/C (dose: 20.0 mg/kg/injection, schedule: Q01DX009 (ip), vehicle: distilled water + Tween-80): 159 % of control
- T/C (dose: 40.0 mg/kg/injection, schedule: Q01DX009 (ip), vehicle: acid diluted with saline): 202 % of control
- T/C (dose: 40.0 mg/kg/injection, schedule: Q01DX009 (ip), vehicle: distilled water + Tween-80): 162 % of control

SMILES: Cc1cc(O)c2c(c1O)C(=O)c1cc(O)cc(O)c1C2=O
- T/C (dose: 6.25 mg/kg/injection, schedule: Q01DX005 (ip), vehicle: saline + alcohol): 104 % of control
- T/C (dose: 12.5 mg/kg/injection, schedule: Q01DX005 (ip), vehicle: saline + alcohol): 101 % of control
- T/C (dose: 25.0 mg/kg/injection, schedule: Q01DX005 (ip), vehicle: saline + alcohol): 99 % of control

SMILES: N#CC1(C#N)C(CCl)C1(C#N)C#N
- T/C [13]: 98 % of control
- T/C [14]: 94 % of control
- T/C [4]: 98 % of control
- T/C [10]: 102 % of control

SMILES: N#Cc1c(-c2ccc(Cl)cc2)cn2c1[nH]c(=O)c1cc(Br)ccc12
- T/C [1]: 99 % of control
- T/C [2]: 102 % of control
- T/C [3]: 95 % of control
